Results from US20070072954A1, “Novel tetraoxaspiroalkanes and methods of use with organosilicon monomers in polyerizable compositions” (Curators of the University of Missouri, priority 2005, published 2007).

Experiments:
[1] = Photoreactivity assessment (photo DSC enthalpy of polymerization); type: physicochemical; details: for experimental ΔH as % of the calculated ΔH: 3% photoacid
Source text: In this example, the photoreactivity of various combinations of SIL-MIX alone or SIL-MIX with 3,9-diethyl-3,9-bis(allyloxymethyl)-1,5,7,11-tetraoxaspiro[5.5]undecane (DEBAOM-1,5,7,11-TOSU) 1; 3,9-bis(3-trimethylsilylpropyl)-1,5,7,11-tetraoxaspiro[5.5]undecane (BTMSP-1,5,7,11-TOSU) 2; 3,9-bis(allyloxymethyl)-2,4,8,10-tetraoxaspiro[5.5]undecane (BAOM-2,4,8,10-TOSU) 3; 3,9-bis(2-trimethylsilylethyl)-[…] (BTMSE-2,4,8,10-TOSU) 4; 3,3-diethyl-11,12-epoxy-1,5,7,16-tetraoxadispiro[5.2.5.2]hexadecane (DECHE-1,5,7,11-TOSU) 5; and 3,9-diethyl-3,9-bis(3-trimethylsilylpropyloxymethyl)-1,5,7,11-tetraoxaspiro[5.5]-undecane (DEBTMSPOM-1,5,7,11-TOSU) 6 was investigated. The photoreactivity assessments (n=1) were made using an EXFO Novacure light curing unit interfaced with a Perkin-Elmer Diamond DSC. The experimental conditions were as follows: 25° C.; N2 atmosphere; 400-500 nm light; 3 mm quartz light guides; output: 500 mW/cm measured 15 mm from sample surface. The sample weights were 15-18 mg. Standard A1 pans were used. An empty pan was placed in the reference position. Irradiation time was for 10 minutes following a 1 minute equilibration. After the initial run, the sample was re-irradiated for an additional 10 minutes. This second curve was subtracted from the initial exotherm curve to zero out artifacts due to beginning and ending of irradiation, and to compensate for the heat capacity differences between the sample pan and empty reference pan. Integrations were from time t=1.1 (lamp shutter opened) min to 11.1 min (lamp shutter closed).
In this example, reaction mixtures containing 0 or 20 mol % of TOSU monomers 1, 2, 3, 4, and 5 in SIL-MIX were formulated with 4.1 wt % photoinitiator system (3 wt % PI; 1 wt % CQ; 0.1 wt % ED). Formulated mixtures were heated for 5 minutes on an oil bath at about 60° C. and stirred magnetically to aid dissolution of the photoinitiator system and inventive monomer. Formulations were prepared and stored away from ambient light. Mixtures were tested for photoreactivity the same day as prepared.
The effect of doubling the photoinitiator (PI) content from 3 wt % to 6 wt % was also determined for selected mixtures. As in Example 7(a) above, reaction mixtures (about 2 g) were formulated with 4.1 wt % photoinitiator system (3 wt % PI; 1 wt % CQ; 0.1 wt % ED) except where noted. Formulated mixtures were heated for 5 minutes on an oil bath @ 60° C. and stirred magnetically to dissolve the photoinitiator system and 6 (DEBTMSPOM-1,5,7,11-TOSU) when included. Formulations were prepared and stored away from ambient light and tested the same day as prepared.

[2] = Oxirane ring-opening (oxirane conversion) via FTIR; type: physicochemical; details: thin film, 10 min irradiation
Procedure: In this example, the oxirane ring-opening of monomers 1 (DEBAOM-1,5,7,11-TOSU) or 6 (DEBTMSPOM-1,5,7,11-TOSU) was investigated using FTIR. All FTIR spectra were acquired using a Perkin-Elmer BX II FTIR spectrophotometer. The identification of the location of the oxirane absorption band in the IR spectrum of Siloranes was achieved by methanolysis. A sample was dissolved in CH2Cl2 and exposed to CH30H in the presence of a catalytic amount of zinc tetrafluoroborate hydrate overnight. The mixture was evaporated onto a salt plate. An FTIR spectrum was acquired and compared to pre-exposure spectrum. There was a significant decrease in the oxirane absorption region at 882-886 cm^−1. This band was selected as the absorption to monitor for following the oxirane ring-opening reaction.
Analytical samples contained siloranes I, II, or SIL-MIX with and without 50 mol % of monomer 1 (DEBAOM-1,5,7,11-TOSU) or 6 (DEBTMSPOM-1,5,7,11-TOSU). A thin film was brushed onto a salt plate. Irradiation (10 minutes at 23 to 25° C. and R. H.=40-45%) was provided by a 3M XL2500 curing light positioned 1-cm above the sample surface. The light intensity was measured at 360 mW/cm^2 on the sample surface. The oxirane band absorption and an internal reference band absorption were assessed before and after irradiation. Oxirane conversion (alpha) was calculated according to equation (1) by Pan et al., Polym Int 2000, 49, 74. [formula] where subscripts 0 and t represent pre-irradiation and post-irradiation respectively.

[3] = Photopolymerization stress measurement (tensilometer); type: physicochemical
Procedure: In this example, the photopolymerization stress of the monomers of the present invention was investigated. Stress generated during photopolymerization was measured (n=3) using an electromagnetic mechanical testing machine (Enduratec Model 3200, Bose Corp., Minnetonka, Minn.) adapted to be a tensilometer. See Feilzer et al., Dent. Mater. […] Briefly, two identical glass rods, 5 mm in diameter, were placed opposing one another and separated by 1 mm (C-factor=2.5). A displacement transducer (LVDT, Enduratec, 0.1 μm resolution, range ±1 mm) was mounted on one glass rod and was touching a plate attached to the opposing glass rod. The distance between the mounts on the opposing glass rods was about 9 mm (including the 1 mm separation between the rods). Samples placed between the glass rods were cured by irradiation (500 mW/cm^2), while under LVDT displacement control. Load-displacement data were collected at 200 Hz for 30 mins. […] From the load-displacement data, peak loads were obtained and normalized by the original area to obtain the polymerization stresses.

[4] = Oxaspirocyclic ring opening via 13C-NMR; type: physicochemical; details: 20 min visible light irradiation with PI system
Procedure: NMR Studies: NMR spectra were acquired using a Bruker Advance Ultrashield FT-NMR spectrometer. A reaction mixture consisting of 6 (DEBTMSPOM-1,5,7,11-TOSU) and the PI system was heated to 55-60° C. to liquefy and then allowed to cool to room temperature. A 300 mg sample was transferred to an 8 mm I.D.×8 mm H cylindrical glass mold and irradiated for 20 min (3 mm; 500 mW/cm^2) using a 3M XL 2500 lamp. A small amount was transferred to an NMR tube, taken up in CDCl3 and the ^13C-NMR spectrum was acquired and compared to the pre-irradiation spectrum. The residual irradiated material was stored in the dark for 24 hr, resampled, and the NMR spectrum acquired and compared to the pre- and post-irradiation spectra.

**Q.** With `CCC1(COCCC[Si](C)(C)C)COC2(OC1)OCC(CC)(COCCC[Si](C)(C)C)CO2` (centres unmarked) [Monomer 6, 3,9-diethyl-3,9-bis(3-trimethylsilylpropyloxymethyl)-1,5,7,11-tetraoxaspiro[5.5]undecane] as the compound, how does the ΔHexp ([1]; 3 wt % PI, 10 mol % in SIL-MIX) read?
**A.** -124 J/g

**Q.** What about the ΔHexp ([1]; 3 wt % PI, 25 mol % in SIL-MIX) of the same compound?
**A.** -86 J/g

**Q.** And the ΔHcalc ([1]; 3 wt % PI, calculated for inert diluent instead of TOSU at 10 mol %)?
**A.** -174 J/g

**Q.** What about the ΔHcalc ([1]; 3 wt % PI, calculated for inert diluent instead of TOSU at 25 mol %) of the same compound?
**A.** -145 J/g

**Q.** And the ΔHexp ([1]; 6 wt % PI, 10 mol % in SIL-MIX)?
**A.** -127 J/g

**Q.** And the ΔHexp ([1]; 6 wt % PI, 25 mol % in SIL-MIX)?
**A.** -87 J/g

**Q.** And the ΔHcalc ([1]; 6 wt % PI, calculated for inert diluent instead of TOSU at 10 mol %)?
**A.** -166 J/g

**Q.** What about the ΔHcalc ([1]; 6 wt % PI, calculated for inert diluent instead of TOSU at 25 mol %) of the same compound?
**A.** -139 J/g

**Q.** What about the “experimental ΔH as % of the calculated ΔH” value ([1]; 10% TOSU mix in SIL-MIX) of the same compound?
**A.** 71%

**Q.** What about the “experimental ΔH as % of the calculated ΔH” value ([1]; 25% TOSU mix in SIL-MIX) of the same compound?
**A.** 59%

**Q.** What about the “Oxirane Conversion” value ([2]; comonomer 50 mol % in PH-SIL (I)) of the same compound?
**A.** 22%

**Q.** What about the “Oxirane Conversion” value ([2]; comonomer 50 mol % in SIL-MIX) of the same compound?
**A.** 22%

**Q.** And the “Oxirane Conversion” value ([2]; comonomer 50 mol % in TET-SIL (II))?
**A.** 3%

**Q.** And the “polymerization stress values less than SIL-MIX alone” value ([3]; 10 mol % TOSU)?
**A.** 80%

**Q.** What about the “polymerization stress values less than SIL-MIX alone” value ([3]; 25 mol % TOSU) of the same compound?
**A.** 96%

**Q.** What about the Photopolymerization stress ([3]; SIL-MIX/6 75/25 mol/mol) of the same compound?
**A.** 0.3(0.1) N/mm^2

**Q.** What about the Photopolymerization stress ([3]; SIL-MIX/6 90/10 mol/mol) of the same compound?
**A.** 2.1(0.2) N/mm^2

**Q.** And the “changes in 13C-NMR spectrum (oxaspirocyclic ring opening)” value ([4]; 0 hour dark cure)?
**A.** No significant changes

**Q.** What about the “changes in 13C-NMR spectrum (oxaspirocyclic ring opening)” value ([4]; 24 hour dark cure) of the same compound?
**A.** consistent with oxaspirocyclic ring opening to form oligomeric carbonate species

**Q.** What about the melting point of the same compound?
**A.** 44.27 °C
